Tests used:
AKAP-PKA interaction = AKAP-PKA interaction (Homo sapiens, UniProt P13861); test: AKAP-PKA interaction (disruption) assays of Examples 1-3: alpha screen, surface plasmon resonance, ELISA (combined classification); type: binding; conditions: for IC50: read-out: Activity (IC50 class)
Procedure: The inhibition of the interaction of the alpha RII subunit of protein kinase A with AKAP18-alpha by the compounds according to the invention is determined as follows:
The experiment measures the suitability of candidate compounds for the inhibition of the interaction between AKAP and PKA. An AKAP-GST fusion construct is immobilized on glutathione donor beads and His-RII-alpha on Ni-chelate acceptor beads. To the extent that the partners interact, singlet oxygen from the donor beads becomes free and activates the fluorescence emission of the acceptor beads. The fluorescence emission determined in the microplate reader is proportional to the intensity of interaction of the protein partners. The IC50 is determined from the results of the measurement of several concentrations of one candidate compound.
The details of the process were as follows: Two protein Solutions A and B are produced in a buffer (phosphate NaCl buffer, 0.1% polysorbate 80, 0.1% [=1 mg/ml BSA]). These contain (A) the histidine-6-tagged fusion construct RII-alpha-His (3.125 nmol/l) and (B) the glutathione-S-transferase-tagged fusion construct GST-AKAP18-alpha-d2-10 (6.25 nmol/l). One volume unit each of protein solution and bead suspension are incorporated, specifically Solution A of the His6-tagged protein with Ni-chelate bead suspension and Solution B of the GST-fusion protein with glutathione beads (Perkin Elmer Product No. 6765302), and in doing so the concentrations are selected according to the manufacturers information. The Mixtures A and B obtained are incubated for one hour at room temperature (RT) in the dark.
Then, 5 μl of Mixture A is laid out for each hole on a 384-hole microtiter plate, and then to start with 0.5 μl of a solution of the candidate compound in DMSO is added and then 5 μl of Mixture B. The resulting reaction mixture is incubated 1 h at RT in the dark. Then, the reaction is tempered to 28.5° C., and the emitter intensity of the acceptor is determined in a microtiter plate reader after excitation of the donor at 680 nm.
The relative inhibition of the AKAP-PKA interaction is calculated following the formula: 1−(xc−y)/(z−y) where: X=average of readings (n=3) at concentration c; Y=average of measurement data from bead-bead check (n=6); Z=average of measurement data from protein-protein check (n=6). Results:
Surface plasmon resonance analyses for competition in solution were performed with streptavidin-coated sensor chips (GE Healthcare, Uppsala, Sweden). The N-terminal biotinylated peptide AKAP18d-L314E was used, which is a variant of the RH-binding domains of AKAP18δ (Hundsrucker et al., Biochem. J. 396, 297-306, [2006]). The binding of the regulatory subunit of the human PKAII-α or RII-β onto the peptide surface of the AKAP18δ-L314E, or the inhibition of this binding to RII by the compounds of the invention, was measured on a Biacaore 3000 machine (Biacore/GE Healthcare) as previously described (Henn et al., J Biol Chem 279, 26654-26665 [2004]). The compounds were injected for 60 sec at a flow rate of 30 μl/min, and the dissociation phase was measured for 180 sec.
Multititer plates (Corning B.V. Life Sciences, Schiphol-Rijk, Netherlands) were coated with recombinantly produced PKA RIIα (15 ng/hole) by incubation with phosphate buffer containing protease inhibitors (1 h, 22° C.). The plate was then blocked with lactoprotein.
GST-AKA7δ (Hundsrucker et al., Biochem. J. 396, 297-306, [2006]; 15 ng/well) was incubated with and without candidate compounds on the plate for 1 h at 22° C. After washing, it was incubated with antibodies (rabbit) against AKA7δ (A18δ3) and then with a peroxidase-conjugated antirabbit antibody and developed with dye substrate (LumiLight Western Blotting Substrate, Roche Diagnostics, Mannheim, Germany). Luminescence activity was determined in a microplate reader (GeniosPro, Tecan, Durham, N.C., United States) at 10 msec integration.

PKA subunit RIIα = PKA subunit RIIα (Homo sapiens, UniProt P13861); test: Microscale Thermophoresis (MST); type: binding; conditions: 20 mM Phosphate, pH 7.5, 100 mM NaCl, 0.05% Tween 20, 5% DMSO, 25° C.
Sequence of PKA subunit RIIα (P13861 whole entry): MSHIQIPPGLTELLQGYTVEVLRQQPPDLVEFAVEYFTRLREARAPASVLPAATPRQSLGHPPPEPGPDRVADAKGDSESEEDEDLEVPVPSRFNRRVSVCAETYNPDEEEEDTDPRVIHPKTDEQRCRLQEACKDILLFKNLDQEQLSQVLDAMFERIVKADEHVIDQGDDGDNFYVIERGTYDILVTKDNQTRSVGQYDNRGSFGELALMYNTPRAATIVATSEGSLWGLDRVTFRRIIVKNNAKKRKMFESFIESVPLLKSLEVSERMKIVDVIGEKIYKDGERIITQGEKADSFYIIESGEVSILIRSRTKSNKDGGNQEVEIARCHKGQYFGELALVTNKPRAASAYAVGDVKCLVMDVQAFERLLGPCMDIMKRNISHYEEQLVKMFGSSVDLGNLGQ
Procedure: Microscale Thermophoresis (MST) were performed on a monolith NT machine (nano tember technologies, Munich, Germany) with exemplary compounds (T2/11, 15, 59) in 20 mM Phosphate, pH 7.5, 100 mM NaCl, 0.05% Tween 20 and 5% DMSO according to the general protocol provided by the manufacturer. Interaction partners were PKA subunit RIIα labelled with blue fluorescent dye NT-495; the parameters were: LED blue, LED Power 80%, Laser Power 20-80%, 25° C. A constant concentration of compounds was titrated with increasing concentrations of unlabelled PKA RIIα (50 nM, 100 nM, 250 nM, 500 nM, 1 μM, 2.5 μM, 5 μM, 10 μM, 25 μM, 50 μM, 100 μM and 200 μM).

[1] = test system: C57B1/6 mice undergoing TAC operations; test: Transverse aortic constriction (TAC) animal model, Example 5; type: in vivo
Procedure: In male C57B1/6 mice (12-14 weeks old, average weight 26 g), high pressure overload induced by restricting the aorta following the method published by de Alameida et al. (J vis exp. 2010 Apr. 21; [38]). Control animals were treated with sham operations. The animals were observed over a period of 4 weeks after the operation, and then mini osmotic pumps were implanted intraperitoneally with a compound to be tested (0.5, 5, 50, and 100 μmol/l, corresponding to 6 μg/kg/day) (Table 2), a β1-adrenergic receptor antagonist (metoprolol; 24 mg/kg/day), a β1-adrenergic receptor […], a PDE3-inhibitor (milrinone; 3.0 mg/kg/d), and DMSO. Echocardiograms were done two and four weeks after implantation.
As expected, the narrowing of the aorta leads to cardiac hypertrophy and chronic heart failure in the 4-week period after surgery. The ejection fraction (ejection fraction; Ef) is the portion of the blood contained in the chambers of the heart that is ejected in comparison with the total volume at the end of diastole of the ventricle. […] The following groups were measured:
Animals undergoing sham operations with • only DMSO as vehicle control (solid black bar); • Compound 59, 3 μg/kg/day in DMSO (checked bar); • Compound 59, 6 μg/kg/day in DMSO (bold crosshatched bar);
Animals undergoing TAC operations with • only DMSO as vehicle control (bold vertically hatched bar); • Compound 59, 0.03 μg/kg/day in DMSO (bold diagonal hatching to upper right); • Compound 59, 0.03 μg/kg/day in DMSO (bold diagonal hatching to lower right); • Compound 59, 3 μg/kg/day in DMSO (thin diagonal hatching to upper right); • Compound 59, 6 μg/kg/day in DMSO (thin diagonal hatching to lower right);

[2] = test system: TAC operated C57BL/6 mice; test: Echocardiography in the TAC model, Example 5a; type: in vivo
Procedure: Protocol: For intervention 12- to 14-week-old male C57BL/6 mice (Charles River Sulzfeld) were anesthetized by 2.4% isoflurane inhalation. Transverse aortic banding (TAC) was performed by tying a 7-0 prolene suture (Ethicon) ligature around the aorta and a blunted 26-gauge needle and subsequent removal of the needle. For sham controls the suture was not tied. TAC was confirmed by echocardiography and measurement of blood flow gradient 4 weeks after surgery. Next, mini-osmotic pumps (model 1004, Alzet) with T2/15 compound/vehicle were implanted i.p. Echocardiography was performed 2 and 4 weeks with compound treatment.
For echocardiography analyses mice were anesthetized by 2.4% isoflurane inhalation and ventricular measurements were done with a VisualSonics Vevo 2100 Imaging System equipped with a 45 MHz MS-550D MicroScan transducer. The observer was unaware of the genotypes and treatments.
Differences between experimental groups were analyzed using ANOVA test followed by Bonferroni's Multiple Comparison Test using Prism Graphpad 4. Data are presented as mean±SEM. P<0.05 values were considered significant.

[3] = class from IC50 values in assays of Examples 1, 2 or 3
[4] = between 0.3 and 3 μg/kg/d, vs. DMSO

Sequence of AKAP-PKA interaction (P13861 2-404 limits assumed): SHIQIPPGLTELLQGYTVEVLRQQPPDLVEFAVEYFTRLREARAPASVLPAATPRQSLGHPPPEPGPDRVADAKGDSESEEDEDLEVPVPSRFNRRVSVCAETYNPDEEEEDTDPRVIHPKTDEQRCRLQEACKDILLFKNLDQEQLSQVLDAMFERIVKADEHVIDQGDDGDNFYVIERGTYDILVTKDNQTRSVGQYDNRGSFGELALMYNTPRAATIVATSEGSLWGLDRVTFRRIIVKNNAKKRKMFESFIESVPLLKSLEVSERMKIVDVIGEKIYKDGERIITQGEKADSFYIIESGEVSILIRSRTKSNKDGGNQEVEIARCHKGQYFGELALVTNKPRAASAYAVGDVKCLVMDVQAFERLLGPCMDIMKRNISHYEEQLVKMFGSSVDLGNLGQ

Row | Structure (SMILES) | IC50 (AKAP-PKA interaction; [3]) [µM] | Kd (PKA subunit RIIα) [µM] | other results
1 | O=C1/C(=C/Nc2ccc(O)cc2)Sc2ccccc21 [VI, (2Z)-2-[(4-hydroxyanilino)methylene]benzothiophen-3-one, reference compound] | – | – | Activity in AKAP-PKA interaction assays (in words) (AKAP-PKA interaction; assays of Examples 1-3): could not be found to show significant reduction of AKAP-PKA interaction
2 | COC(=O)c1cnc(N/C=C2\Sc3ccccc3C2=O)s1 [T2/17, 2-[[(z)-(3-oxobenzothiophene-2-ylidene)methyl]amino]thiazole-5-carboxylic acid methylester] | – | – | Activity (IC50 class) (AKAP-PKA interaction; [3]): 2-[[(z)-(3-oxobenzothiophene-2-ylidene)methyl]amino]thiazole-5-carboxylic acid methylester Activity: A(A)
3 | O=C1/C(=C/Nc2nc3ccccc3s2)Cc2ccccc21 [T2/55, (2e)-2-[(1,3-benzothiazole-2-ylamino)methylene]indane-1-one] | < 250 | – | –
4 | COc1ccc2nc(N/C=C3\Sc4ccccc4C3=O)sc2c1 [T2/24, (2Z)-2-[[(6-methoxy-1,3-benzothiazole-2-yl)amino]methylene]benzothiophene-3-one] | < 150 | – | –

Now from value to compound, other results behind:

Row | IC50 (AKAP-PKA interaction; [3]) [µM] | Kd (PKA subunit RIIα) [µM] | Structure (SMILES) | other results
5 | < 150 | 31.9 | Cc1cnc(N/C=C2\Sc3ccccc3C2=O)s1 [T2/11, (2Z)-2-[[(5-methylthiazole-2-yl)amino]methylene]benzothiophene-3-one] | IC50 relative to that of the unsubstituted mother compound (AKAP-PKA interaction; alkyl substituent on heteroaromatic pentacycle): about 50%
6 | < 250 | 88.5 | O=C(O)c1ccc(N/C=C2\Sc3ccccc3C2=O)cc1 [T2/59, 4-[[(z)-(3-oxobenzothiophene-2-ylidene)methyl]amino]benzoic acid] | heart rate ([1]; TAC model mice): does not affect the heart rate; ejection fraction (Ef) ([1]; TAC operated mice, i.p. mini osmotic pump, depending on the dose, operated without treatment 20%, healthy >60%): 40%; heart weight (ratio of heart weight to the tibia length) ([1]; TAC operated treated mice, FIG. 2): falls significantly
7 | < 25 | 98.1 | N#Cc1cnc(N/C=C2\Sc3ccccc3C2=O)s1 [T2/15, 2-[[(z)-(3-oxobenzothiophene-2-ylidene)methyl]amino]thiazole-5-carbonitrile] | cardiac function [2, 4]: improved function; heart rate or -mass [2, 4]: without increasing; wall dimensions and cavity diameter (IVSd, LVPWd, LVEDd) ([2]; echocardiography, i.p. mini-osmotic pump, 2 and 4 weeks treatment): no significant effect; HW/TL (heart weight normalized against tibia length) ([2]; treatment vs. DMSO, FIG. 6): has an effect on HW/TL
8 | < 150 | – | O=C1/C(=C/Nc2nc3ccccc3[nH]2)Sc2ccccc21 [T2/2, (2Z)-2-[(1H-benzimidazole-2-ylamino)methylene]benzothiophene-3-one] | –
9 | < 250 | – | O=C1/C(=C/Nc2ncccn2)Sc2ccccc21 [T2/49, (2Z)-2-[(pyrimidine-2-ylamino)methylene]benzothiophene-3-one] | –
10 | < 150 | – | COC(=O)c1csc(N/C=C2\Sc3ccccc3C2=O)n1 [T2/18, 2-[[(z)-(3-oxobenzothiophene-2-ylidene)methyl]amino]thiazole-4-carboxylic acid methylester] | –

Source: patent US9102667B2, “N-arylaminomethylene benzothiophenones for treatment of cardiovascular disease” (FORSCHUNGSVERBUND BERLIN E.V., priority 2011, dated 2015)
